The source of these data is patent US6403647B1, “Pulsed administration of compositions for the treatment of blood disorders” (priority 1996, dated 2002).

The nature of series [1]: Total hemoglobin in phlebotomized anemic baboons, continuous versus pulse therapy. The following applies: continuous, 700 mg/kg/day for 5 days; phlebotomized baboon; from 6.7. It counts as in vivo, baboon. How it is done:
Therapy was administered to anemic baboons who were being phlebotomized 5-10 ml/kg of blood per day on a continuous basis. EPO was administered daily at 300 U/kg/dose. Arginine butyrate was administered daily at 700 mg/kg/day for 5 days and phenoxyacetic acid at 500 mg/kg/day daily over 8 hours and at 1000 mg/kg/day for 24 hours/day daily for five days each. […] With continuous arginine butyrate treatment, hemoglobin remained essentially stable at 6.7 to 6.9 gram/dl. With continuous treatment with phenoxyacetic acid, hemoglobin levels remained stable at 7.0 gram/dl to 6.9 gram/dl during 8 hour therapy and declined from 6.8 to 4.5 when the drug was given for 24 hours per day for 5 days.

A short description of series [2]: Continuous 24 hour per day infusions in sickle cell disease and beta thalassemia patients. It counts as in vivo, human. On the procedure: Continuous 24 hour per day infusions of was administered in another study to 10 patients with sickle cell disease and beta thalassemia and produced rises in fetal globin in a lower proportion of patients, 40%. Many of these responses were not sustained.
Therefore, the same infusion rate given for 24 hours/day results in a lower response rate than does 8-16 hour/day treatment at the same infusion rate. A lower proportions of patients respond hematologically with continuous 24 hours therapy (1/10 patients) than respond to intermittent pulse therapy 8/10 patients. Hematologic responses are higher with pulse therapy (2-5) gram/dl above baseline levels compared to no responses in patients treated with 24 hour therapy.

A short description of series [3]: Half-life. The following applies: in vivo.
The nature of series [4]: DNA fragmentation assays (cell viability). It counts as cell-based. The text has this: Normal cell viability, the viability of an untransformed or uninfected cell, can be determined from analyzing the effects of the composition on one or more biological processes of the cell. Detrimental interference with one or more of these cellular processes becomes significant when the process becomes abnormal. Examples of quantitatable and qualifiable biological processes include the processes of cell division, protein synthesis, nucleic acid (DNA or RNA) synthesis, nucleic acid (principally DNA) fragmentation and apoptosis. Others processes include specific enzyme activities, the activities of the cellular transportation systems such as the transportation of amino acids by system A (neutral), system B (acidic) or system C (basic), and the expression of a cell surface protein. […] Abnormal cell division, for example, can be mitosis which occurs too rapidly, as in a malignancy, or unstably, resulting in programmed cell death or apoptosis, detected by increased DNA degradation. The determination of abnormal cell viability can be made on comparison with untreated control cells. Compositions preferably increase normal cell viability. Increased cell viability can be determined by those of ordinary skill in the art using, for example, DNA fragmentation analysis. […] Determinations of increased or decreased viability can also be concluded from an analysis of the results of multiple different assays. Where multiple tests provide conflicting results, accurate conclusions can still be drawn by those of ordinary skill based upon the cell type, the correctness or correlation of the tests with actual conditions and the type of composition.
Patients with blood disorders are typically quite infirm with, for example, iron damaged organs and systems. Most treatments further tax the patient's already frail health in an effort to combat the disorder.

What is called half-life is how long it takes for the measured level to halve. For the substance arginine butyrate, the “total hemoglobin after treatment” value in series [1] worked out at 6.9 gram/dl. For the same substance, the “proportion of patients with rises in fetal globin” value in series [2] (continuous 24 hour per day infusions, 10 patients) is listed as 40%. Further, the patients responding hematologically in series [2] (continuous 24 hours therapy) is 1/10. The half-life in series [3] was determined as 15 min. In addition, the “cell viability in DNA fragmentation assays” value in series [4] is reported as “decrease cell viability”.
